Laboratory results: patent publication US10851097B2, “4,5,6,7-tetrahydro-1H-imidazo[4,5-c]pyridine and 1,4,5,6,7,8-hexahydroimidazo[4,5-d]azepine derivatives as janus kinase inhibitors” (Topivert Pharma Limited, priority 2015, dated 2020)

Columns and labels:
[1] = test system: CD3/IL2 stimulated PBMC cells; experiment: IFNγ release from CD3/IL2 stimulated PBMC cells (assay (a)); type: cell-based; conditions: Homo sapiens, CD3/IL2 stimulation, 48 h, ELISA
Procedure: (a) IFNγ Release from CD3/IL2 Stimulated PBMC Cells
PBMCs from healthy subjects are separated from whole blood using a density gradient (Lymphoprep, Axis-Shield Healthcare). Cells are added to a 96 well plate, and compound at the desired concentration added 2 hours prior to stimulation with a mixture of monoclonal antibody to CD3 (1 μg/ml, eBioscience) and human recombinant IL2 (10 ng/ml, Peprotech). After 48 hours incubation under normal tissue culture conditions, supernatants are collected and IFNγ release determined by Sandwich ELISA (Duo-set, R&D System). The IC50 is determined from the dose response curve.

[2] = test system: Jurkat cells; experiment: Cell cytotoxicity assay in Jurkat cells (assay (c)); type: cell-based, human; conditions: 24 h, propidium iodide, normalised to DMSO control
Procedure: (c) Cell Cytotoxicity Assay
1×10^5 Jurkat cells (immortalised human T lymphocytes) are added to the appropriate number of wells of a 96 well plate in 100 μL of media (RPMI supplemented with 10% foetal bovine serum). 1 μL of DMSO control (final concentration 1.0% v/v) or test compound (final concentration 20, 5 or 1 μg/mL) is added to the wells and incubated at 37° C., 5% CO2. After 24 hours, the plate is centrifuged at 1200 rpm for 3 minutes and the supernatant discarded. Cells are then resuspended in 150 μL (final concentration 7.5 μg/mL) of propidium iodide (PI) in PBS and incubated at 37° C., 5% CO2 for 15 minutes. After 15 minutes, cells are analysed by flow cytometry (BD accuri) using the FL3 window. The % viability is calculated as the % of cells that are PI negative in the test wells normalised to the DMSO control.

Row | SMILES | IC50 [1] [nM] | % viability at 1 μg/mL [2] [%]
1 | CCc1cc(O)c(F)cc1-c1ccc2c(-c3nc4c([nH]3)CCN(C(=O)c3cnc(NCCN5CCC(O)CC5)cn3)C4)n[nH]c2c1 [Example 2(b), (2-(6-(2-ethyl-5-fluoro-4-hydroxyphenyl)-1H-indazol-3-yl)-1,4,6,7-tetrahydro-5H-imidazo[4,5-c]pyridin-5-yl)(5-((2-(4-hydroxypiperidin-1-yl)ethyl)amino)pyrazin-2-yl)methanone] | 87 | 
2 | CCc1cc(O)c(F)cc1-c1ccc2c(-c3nc4c([nH]3)CCN(C(=O)c3cnc(NCCC5(O)CCN(C)CC5)cn3)C4)n[nH]c2c1 [Example 2(g), (2-(6-(2-ethyl-5-fluoro-4-hydroxyphenyl)-1H-indazol-3-yl)-1,4,6,7-tetrahydro-5H-imidazo[4,5-c]pyridin-5-yl)(5-((2-(4-hydroxy-1-methylpiperidin-4-yl)ethyl)amino)pyrazin-2-yl)methanone] | 271 | 
3 | CCc1cc(O)c(F)cc1-c1ccc2c(-c3nc4c([nH]3)CCN(C(=O)c3cnc(N5CC(CO)C5)cn3)C4)n[nH]c2c1 [Example 2(o), (2-(6-(2-ethyl-5-fluoro-4-hydroxyphenyl)-1H-indazol-3-yl)-6,7-dihydro-1H-imidazo[4,5-c]pyridin-5(4H)-yl)(5-(3-(hydroxymethyl)azetidin-1-yl)pyrazin-2-yl)methanone] | 22.5 | 62
4 | CCc1cc(O)c(F)cc1-c1ccc2c(-c3nc4c([nH]3)CCN(C(=O)c3cnc(N(C)Cc5ccccn5)cn3)C4)n[nH]c2c1 [Example 2(c), (2-(6-(2-ethyl-5-fluoro-4-hydroxyphenyl)-1H-indazol-3-yl)-1,4,6,7-tetrahydro-5H-imidazo[4,5-c]pyridin-5-yl)(5-(methyl(pyridin-2-ylmethyl)amino)pyrazin-2-yl)methanone] | 37 | 
5 | CCc1cc(O)c(F)cc1-c1ccc2c(-c3nc4c([nH]3)CCN(C(=O)c3cnc(N(CCOC)CCOC)cn3)C4)n[nH]c2c1 [Example 2(i), (5-(bis(2-methoxyethyl)amino)pyrazin-2-yl)(2-(6-(2-ethyl-5-fluoro-4-hydroxyphenyl)-1H-indazol-3-yl)-1,4,6,7-tetrahydro-5H-imidazo[4,5-c]pyridin-5-yl)methanone] | 14.5 | 53
6 | CCc1cc(O)c(F)cc1-c1ccc2c(-c3nc4c([nH]3)CCN(C(=O)c3cnc(NCCS(C)(=O)=O)cn3)C4)n[nH]c2c1 [Example 2(q), (2-(6-(2-ethyl-5-fluoro-4-hydroxyphenyl)-1H-indazol-3-yl)-6,7-dihydro-1H-imidazo[4,5-c]pyridin-5(4H)-yl)(5-((2-(methylsulfonyl)ethyl)amino)pyrazin-2-yl)methanone] | 113 | 94
7 | CCc1cc(O)c(F)cc1-c1ccc2c(-c3nc4c([nH]3)CCN(C(=O)c3cnc(NCCN5CC[S+]([O-])CC5)cn3)C4)n[nH]c2c1 [Example 2(d), (2-(6-(2-ethyl-5-fluoro-4-hydroxyphenyl)-1H-indazol-3-yl)-1,4,6,7-tetrahydro-5H-imidazo[4,5-c]pyridin-5-yl)(5-((2-(1-oxidothiomorpholino)ethyl)amino)pyrazin-2-yl)methanone] | 270 | 
8 | CCc1cc(O)c(F)cc1-c1ccc2c(-c3nc4c([nH]3)CCN(C(=O)c3cnc(NCCOCCOCCOC)cn3)C4)n[nH]c2c1 [Example 2(m), (2-(6-(2-ethyl-5-fluoro-4-hydroxyphenyl)-1H-indazol-3-yl)-6,7-dihydro-1H-imidazo[4,5-c]pyridin-5(4H)-yl)(5-((2-(2-(2-methoxyethoxy)ethoxy)ethyl)amino)pyrazin-2-yl)methanone] | 15.2 | 88
9 | CCc1cc(O)c(F)cc1-c1ccc2c(-c3nc4c([nH]3)CCN(C(=O)c3cnc(N5CCN(CCn6ccnc6)CC5)cn3)C4)n[nH]c2c1 [Example 2(j), (5-(4-(2-(1H-imidazol-1-yl)ethyl)piperazin-1-yl)pyrazin-2-yl)(2-(6-(2-ethyl-5-fluoro-4-hydroxyphenyl)-1H-indazol-3-yl)-1,4,6,7-tetrahydro-5H-imidazo[4,5-c]pyridin-5-yl)methanone] | 5.3 | 12
10 | CCc1cc(O)c(F)cc1-c1ccc2c(-c3nc4c([nH]3)CCN(C(=O)c3cnc(N5CC[S+]([O-])CC5)cn3)C4)n[nH]c2c1 [Example 2(e), (2-(6-(2-ethyl-5-fluoro-4-hydroxyphenyl)-1H-indazol-3-yl)-1,4,6,7-tetrahydro-5H-imidazo[4,5-c]pyridin-5-yl)(5-(1-oxildothiomorpholino)pyrazin-2-yl)methanone] | 57.6 | 96
11 | CCc1cc(O)c(F)cc1-c1ccc2c(-c3nc4c([nH]3)CCN(C(=O)c3cnc(N5C[C@H]6CN(C)C[C@H]6C5)cn3)C4)n[nH]c2c1 [Example 2(t), (2-(6-(2-ethyl-5-fluoro-4-hydroxyphenyl)-1H-indazol-3-yl)-6,7-dihydro-1H-imidazo[4,5-c]pyridin-5(4H)-yl)(5-((3aR,6aS)-5-methylhexahydropyrrolo[3,4-c]pyrrol-2(1H)-yl)pyrazin-2-yl)methanone] | 15.2 | 18
12 | CCc1cc(O)c(F)cc1-c1ccc2c(-c3nc4c([nH]3)CCN(C(=O)c3cnc(N(C)CCN(C)C(C)=O)cn3)C4)n[nH]c2c1 [Example 2(n), N-(2-((5-(2-(6-(2-ethyl-5-fluoro-4-hydroxyphenyl)-1H-indazol-3-yl)-4,5,6,7-tetrahydro-1H-imidazo[4,5-c]pyridine-5-carbonyl)pyrazin-2-yl)(methy)amino)ethyl)-N-methylacetamide] | 29.2 | 87
13 | CCc1cc(O)c(F)cc1-c1ccc2c(-c3nc4c([nH]3)CCN(C(=O)c3cnc(N(C)CCCC(=O)O)cn3)C4)n[nH]c2c1 [Example 2(a), 4-((5-(2-(6-(2-ethyl-5-fluoro-4-hydroxyphenyl)-1H-indazol-3-yl)-4,5,6,7-tetrahydro-1H-imidazo[4,5-c]pyridine-5-carbonyl)pyrazin-2-yl)(methyl)amino)butanoic acid] | 732 | 
14 | CCc1cc(O)c(F)cc1-c1ccc2c(-c3nc4c([nH]3)CCN(C(=O)c3cnc(N5CCN(CCO)CC5)cn3)C4)n[nH]c2c1 [Example 2(l), (2-(6-(2-ethyl-5-fluoro-4-hydroxyphenyl)-1H-indazol-3-yl)-6,7-dihydro-1H-imidazo[4,5-c]pyridin-5(4H)-yl)(5-(4-(2-hydroxyethyl)piperazin-1-yl)pyrazin-2-yl)methanone] | 9.4 | 10
15 | CCc1cc(O)c(F)cc1-c1ccc2c(-c3nc4c([nH]3)CCN(C(=O)c3cnc(N5CCN(CCN(C)C)CC5)cn3)C4)n[nH]c2c1 [Example 2(f), (5-(4-(2-(dimethylamino)ethyl)piperazin-1-yl)pyrazin-2-yl)(2-(6-(2-ethyl-5-fluoro-4-hydroxyphenyl)-1H-indazol-3-yl)-1,4,6,7-tetrahydro-5H-imidazo[4,5-c]pyridin-5-yl)methanone] | 49.3 | 16
16 | CCc1cc(O)c(F)cc1-c1ccc2c(-c3nc4c([nH]3)CCN(C(=O)c3cnc(NCCN5CCCC5=O)cn3)C4)n[nH]c2c1 [Example 2(r), 1-(2-((5-(2-(6-(2-ethyl-5-fluoro-4-hydroxyphenyl)-1H-indazol-3-yl)-4,5,6,7-tetrahydro-1H-imidazo[4,5-c]pyridine-5-carbonyl)pyrazin-2-yl)amino)ethyl)pyrrolidin-2-one] | 90.8 | 
17 | CCc1cc(O)c(F)cc1-c1ccc2c(-c3nc4c([nH]3)CCN(C(=O)c3cnc(N(C)CCN5CCOC5=O)cn3)C4)n[nH]c2c1 [Example 2(u), 3-(2-((5-(2-(6-(2-ethyl-5-fluoro-4-hydroxyphenyl)-1H-indazol-3-yl)-4,5,6,7-tetrahydro-1H-imidazo[4,5-c]pyridine-5-carbonyl)pyrazin-2-yl)(methyl)amino)ethyl)oxazolidin-2-one] | 73.8 | 
18 | CCc1cc(O)c(F)cc1-c1ccc2c(-c3nc4c([nH]3)CCN(C(=O)c3cnc(N5C[C@@H]6C(=O)NC(=O)[C@@H]6C5)cn3)C4)n[nH]c2c1 [Example 2(w), (3aR,6aS)-5-(5-(2-(6-(2-ethyl-5-fluoro-4-hydroxyphenyl)-1H-indazol-3-yl)-4,5,6,7-tetrahydro-1H-imidazo[4,5-c]pyridine-5-carbonyl)pyrazin-2-yl)tetrahydropyrrolo[3,4-c]pyrrole-1,3(2H,3aH)-dione] | 942 | 
19 | CCc1cc(O)c(F)cc1-c1ccc2c(-c3nc4c([nH]3)CCN(C(=O)c3cnc(N5C[C@H](O)[C@@H](O)[C@H](O)[C@H]5CO)cn3)C4)n[nH]c2c1 (stereo in doubt) [Example 2(s), (2-(6-(2-ethyl-5-fluoro-4-hydroxyphenyl)-1H-indazol-3-yl)-6,7-dihydro-1H-imidazo[4,5-c]pyridin-5(4H)-yl)(5-((2R,3R,4R,5S)-3,4,5-trihydroxy-2-(hydroxymethyl)piperidin-1-yl)pyrazin-2-yl)methanone] | 694 | 
20 | CCc1cc(O)c(F)cc1-c1ccc2c(-c3nc4c([nH]3)CCN(C(=O)c3cnc(N(CCO)CCO)cn3)C4)n[nH]c2c1 [Example 2(p), (5-(bis(2-hydroxyethyl)amino)pyrazin-2-yl)(2-(6-(2-ethyl-5-fluoro-4-hydroxyphenyl)-1H-indazol-3-yl)-6,7-dihydro-1H-imidazo[4,5-c]pyridin-5(4H)-yl)methanone] | 154 | 
